Laboratory results reported in publication PMC11129195, “Novel Re(I) Complexes as Potential Selective Theranostic Agents in Cancer Cells and In Vivo in Caenorhabditis elegans Tumoral Strains” (Journal of Medicinal Chemistry, 2024).

Assays:
A2780 cells [1] = experiment: Mitochondrial membrane potential, JC-1 staining; assay type: cell-based, human; details: Re9 1.25 and 2.5 μM, 24 h, antimycin A 6 h
Method: After the treatment period, the cells were collected and resuspended in prewarmed PBS containing JC-1 (1 μM). The cell suspension was then incubated for 30 min at 37 °C. Following the incubation, the cells were washed twice with PBS and immediately analyzed using a flow cytometer (FACSCAlibur Beckton Dickinson). Fluorescence measurements were performed by detecting both the monomeric (emission at 530 ± 30 nm; green) and aggregated (emission at 585 ± 30 nm; red) forms of JC-1 upon excitation at 488 nm. For each sample, a total of 10,000 events were acquired during the analysis.

BGM = experiment: MTT test in nontumorigenic BGM cells; assay type: cell-based, buffalo green monkey; details: 48 h of treatment, normal cells
Method: (§1) Human ovarian carcinoma cell lines (A2780) were cultured in RPMI-1640 medium, while the human cervix adenocarcinoma cell line (HeLa), tumor breast cancer cell line, and nontumorigenic buffalo green monkey cells (BGM) were cultured in DMEM and EMEM (containing nonessential amino acids) medium. The cell culture media were supplemented with 10% fetal bovine serum (FBS), 1% L-glutamine, and 1% penicillin/streptomycin. The cells were maintained in a humidified incubator at 37 °C with a 5% CO2 atmosphere and subcultured 2–3 times a week, each with an appropriate density for its specific cell line. Prior to the experiments, the cell lines were confirmed to be free from mycoplasma contamination using Hoechst DNA staining standard procedures. During cell-based assays, the maximum amount of dimethyl sulfoxide (DMSO) added as a solvent for treatment was limited to 0.4% (v/v) to avoid any potential vehicle-induced toxicity to the cells. Cells were cultured in 96-well plates and allowed to reach confluence. The tested compounds were dissolved in DMSO at a maximum concentration of 0.4% (v/v) and immediately diluted with fresh media. The cells were then incubated with varying concentrations of the Re1–Re9 for 48 h at 37 °C. […] The absorbance at 570 nm was measured using a microplate reader (FLUOstar Omega).

C. elegans strain JK1466 = test system: C. elegans strain JK1466; set-up: method as in earlier work; details: ref "Recent studies"; cited from earlier work
A2780 = experiment: MTT antiproliferative activity in A2780 cells; assay type: cell-based, human; details: MTT test, 48 h of treatment
Method: as §1

A2780 cells [2] = experiment: DNA damage by pH2AX staining, flow cytometry; assay type: cell-based, human; details: A2780, 24 h
Method: DNA damage was evaluated by flow cytometry in A2780 cells. […] Cells were then collected by trypsinization, washed with PBS, and fixed in 200 μL 0.2% PFA for 5 min. After fixation, cells were pelleted, suspended in a 3% FBS solution containing anti phospho-H2AX ([…]) FITC-conjugated monoclonal antibody (CR55T33, eBioscience) at a concentration of 0.6 μg/mL, and incubated for 2 h at room temperature in the dark. Analysis of stained cells was carried out using a Becton Dickinson FACSCalibur flow cytometer with 10,000 acquisitions per sample, registering the FL1-H channel (λexc = 488 nm). Two independent experiments, each with n = 2, were conducted.

wild-type C. elegans = test system: wild-type C. elegans; set-up: method as in PMID 29752286; details: 100 μM, cited from earlier work
C. elegans strain MT2124 = assay type: in vivo, Caenorhabditis elegans
Source text: Caenorhabditis elegans strains JK1466 [gld-1(q485)/dpy-5(e61) unc-13(e51)] and MT2124 [let-60(n1046)] were kindly donated by the Caenorhabditis Genetic Center (CGC, Saint Paul, Minnesota, United States), which is funded by the “NIH Office of Research Infrastructure Programs” (P40 OD010440). The strains were maintained and cultured following the protocols established by Stiernagle.[78]−[80] Synchronous cohorts of C. elegans prepared using the bleach method were used in all the assays.
MT2124 (Muv phenotype) L1 larvae were incubated for 72 h at 20 °C in S basal medium with different concentrations of Re9 (0.1–150 μM) supplemented with E. coli OP50. Antitumoral evaluation was performed following the protocol described by Medina and coauthors with modifications.[81] Ten microliters of a suspension containing young adult nematodes were place in a microscope slide along with 10 μL of sodium azide to reduce its movement. Images of whole worms were taken at 10× magnification using the bright-field microscope. The animals were classified as multivulva (MT) if they had more than one vulva protruding from the […] (Figure 12B) or wild-type if they only had one (WT). Then, the percentage of multivulva animals were calculated with eq 1. [drawing 1] 1
Additionally, the number of vulvas of the multivulva animals were counted. Two independent assays were performed with n ≥ 25 and the statistical significance was estimated by the ANOVA test.

HeLa = experiment: MTT antiproliferative activity in HeLa cells; assay type: cell-based, human; details: MTT test, 48 h of treatment
Method: as §1

A2780 cells [3] = experiment: Scanning electron microscopy of cell morphology; assay type: cell-based, human; details: A2780, 24 h
Method: A2780 cells were treated with CDDP and Re9 for 24 h. Cells then were fixed with 4% PFA fix solution for 30 min and washed with PBS three times. Sample were dehydrated through a graded series of ethanol (30, 50, 70, 95, and 100%), dried by the tertiary butanol method, and then imaged with a SEM operating at 20.0 kV.

A2780 cells [4] = experiment: Annexin V-FITC/PI dual staining, flow cytometry; assay type: cell-based, human; details: 10 μM, 24 h
Method: The annexin V/PI assay was performed following the instructions provided by the manufacturer (Roche). A2780 cells were seeded in 12-well plates at a density of 3 × 10^5 cells/well and incubated overnight. […] After the treatment, the cells were collected and stained with annexin V and PI, following the procedure mentioned earlier. The staining was carried out at room temperature for 15 min in the absence of light, and the samples were immediately analyzed using flow cytometry (FACSCalibur Beckton Dickinson) with an excitation wavelength of 488 nm. The absorbance at 488 nm of compound Re9 was considered negligible. The data obtained from the assay were analyzed using FlowJo Software (TreeStar).

SMILES | mitochondrial membrane potential (MMP) levels (A2780 cells [1]) | IC50 (BGM) | reduction of tumor size (C. elegans strain JK1466) | IC50 (A2780) | DNA damage (pH2AX staining) (A2780 cells [2]) | progeny, share of the expected brood (wild-type C. elegans; L4 animals) | reduction of animal size (wild-type C. elegans; wild-type larvae, 48 h) | development stage (wild-type C. elegans; wild-type, 48 h) | reduction of MT phenotypic incidence (C. elegans strain MT2124; 50 μM) | reduction of the number of vulvas (C. elegans strain MT2124; 50 μM) | MT (multivulva animals) (C. elegans strain MT2124; 50 μM, 72 h) | WT (wild-type nematodes) (C. elegans strain MT2124; 50 μM, 72 h) | n° vulvas (C. elegans strain MT2124; 50 μM, multivulva phenotype nematodes) | effect of concentrations above 50 μM on the nematodes (C. elegans strain MT2124; in vivo) | IC50 (HeLa) | cell death type from SEM morphology (A2780 cells [3]) | Q2 cells (annexin V+/PI+, late apoptotic or pyroptotic) (A2780 cells [4]) | Q3 cells (annexin V+/PI–, early apoptotic) (A2780 cells [4])
CCCCCC[C@H]1C(=O)O[C@H](C)[C@H](NC(=O)c2cccc(NC=O)c2O)C(=O)O[C@@H](C)[C@@H]1OC(=O)CC(C)C [antimycin A, Antimycin A] | significant decrease in MMP levels | – | – | – | – | – | – | – | – | – | – | – | – | – | – | – | – | –
N.N.[Cl][Pt][Cl] [cisplatin] | – | 6.8 ± 0.9 µM | 48% | 2.9 ± 0.4 µM | significantly contributed to the induction of DNA damage | 10% | 75% | L2 stage | 58.2% | 52% | 34.62% | 65.38% | 1.40 | developmental arrest | 23.3 ± 2 µM | apoptosis | 16.9% | 13.8%
